Experimental data published in patent US20050037436A1, “Test systems and the use thereof for identifying and characterizing compounds” (priority 2000, published 2005).

Key:
[1] = system: endogenous, natural muscarinic acetylcholine receptors; assay: Ca2+ imaging, carbachol stimulation of untransfected HEK-293 cells; assay type: cell-based, human; conditions: 1 mM carbachol; absence of BAY44-4400
[2] = molecular target: T1, mouse β2-adrenergic receptor (Mus musculus, UniProt P18762); assay: Ca2+ imaging of HEK-293 cells transfected with β2-R-GFP (control); assay type: cell-based; conditions: immediately after addition
T1 construct: was fused with a C-terminal EGFP tag by amplifying the full-length cDNA with the P117 mouse 2AR XhoI 5′ primer; expressed in transfected cells; host or cells: HEK-293, transient (pEGFP-N3)
T1 sequence (P18762 whole entry, the tested form may be a part): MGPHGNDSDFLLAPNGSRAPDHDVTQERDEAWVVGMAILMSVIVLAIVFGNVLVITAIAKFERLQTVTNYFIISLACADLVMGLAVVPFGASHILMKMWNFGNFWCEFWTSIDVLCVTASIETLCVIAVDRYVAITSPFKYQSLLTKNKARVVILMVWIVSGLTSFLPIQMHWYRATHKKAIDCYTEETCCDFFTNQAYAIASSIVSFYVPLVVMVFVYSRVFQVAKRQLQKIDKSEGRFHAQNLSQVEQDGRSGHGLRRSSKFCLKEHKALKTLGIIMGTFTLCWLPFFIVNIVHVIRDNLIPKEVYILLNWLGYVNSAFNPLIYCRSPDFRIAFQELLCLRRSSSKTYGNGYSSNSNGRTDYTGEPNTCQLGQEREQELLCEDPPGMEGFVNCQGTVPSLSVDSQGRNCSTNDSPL
Protocol: (§1) The intracellular free Ca^2+ concentration [Ca^2+]i was measured in COS-7 and HEK293 cells transiently transfected with the HC110-R-EGFP or β2-AR-EGFP construct using the calcium imaging method (see also FIG. 11). In each case 2×10^5 COS-7 and HEK293 cells were applied to a 42 mm cover glass coated with 1% gelatine in 55 mm tissue culture dishes with 5 ml of DMEM medium (with 10% FCS and pen/strep). The transfection took place with the aid of the non-liposomal transfection reagent FuGENE 6 (Roche Molecular Biochemicals, Mannheim). […] Constructs of the HC110-R full-length clone with a GFP tag fused in the correct reading frame, and the complete cDNA of the β2-adrenergic receptor which had likewise been provided with a GFP tag at the 3′ end, were transfected.
(§2) After the incubation, the cells loaded with Fura-2/AM were examined under an inverted microscope (Zeiss, Axiovert, Germany) and, in parallel with this, in a digital imaging fluorescence microscope (PTI) and differentiated into transfected and untransfected cells at a wavelength of 440 and 490 nm respectively. On average, 5-7 transfected and non transfected cells were selected by fixing an ROI (region of interest). The extinction was measured at 340 nm (calcium-bound Fura-2/AM) and 380 nm (free Fura-2/AM), and the emission was measured at 510 nm. Evaluation took place using the Image Master 1.x software by forming the quotient of 340:510 nm, 380:510 nm and the ratio of 340/380:510 nm (background corrected images) as a function of the agent added.
Agents were always added 6 min after starting the measurement by removing an appropriate volume of Na^+ HBS buffer and pipetting the agent directly into the sample vessel for a further 30 to 50 min. The total volume in the sample vessel was constant at 1.5 ml throughout the experiment. […] Addition of CdCl2 and nifedipine took place immediately at the start of the experiment and before addition of α-LTX, and EGTA was added both at the start of the experiment and 4 min after the addition of α-LTX. […]
The data were analyzed using the Excel 98 table calculation programme. […]

HC110-R = assay type: cell-based, Haemonchus contortus
Protocol: as §1, §2
Agents were always added 6 min after starting the measurement by removing an appropriate volume of Na^+ HBS buffer and pipetting the agent directly into the sample vessel for a further 30 to 50 min. The total volume in the sample vessel was constant at 1.5 ml throughout the experiment. […] Addition of CdCl2 and nifedipine took place immediately at the start of the experiment and before addition of α-LTX, and EGTA was added both at the start of the experiment and 4 min after the addition of α-LTX. Dissolved α-LTX was present in a concentration of 300 nM in 50 mM tris-HCl, pH 8.0; BAY 44-4400 was initially dissolved in pure DMSO (stock solutions between 0.004 and 10 μg/ml). The stock solutions were adjusted to the required concentration in the Na^+ HBS buffer. The maximum amount of the active substance BAY 44-4400 which could be dissolved at a final concentration of 0.1% DMSO was found by setting up serial dilutions in Na^+ HBS.
The data were analyzed using the Excel 98 table calculation programme. The results are derived from at least 2-4 reproduced experiments on in each case 4-8 transfected and un-transfected cells.

Question: With `C[N+](C)(C)CCOC(N)=O.[Cl-]` [carbachol, carbamylcholine chloride] as the compound, how does the “carbachol-induced increase in [Ca2+]i” value [1] read?
Answer: Its value is 53+6.8 nM.

Question: With `CC(C)NCC(O)c1ccc(O)c(O)c1` (centres unmarked) [isoproterenol] as the compound, how does the “Ca2+ response to isoproterenol” value [2] read?
Answer: The value was “significant Ca^2+ response”.

Question: `COC(=O)C1=C(C)NC(C)=C(C(=O)OC)C1c1ccccc1[N+](=O)[O-]` [nifedipine] was tested. Which “second α-LTX-induced increase in [Ca2+]i” value (HC110-R; 15 μM nifedipine) did it give?
Answer: Its value is 30 ± 5.4 nM.

Question: How did the “effect of piperazine on activity of PF1022A/BAY44-4400” value (Heterakis spumosa) turn out when `C1CNCCN1` [piperazine] was run?
Answer: The value was “synergistically enhances the effect of PF1022A/BAY44-4400”.

Question: And the “change in Ca2+ balance, piperazine alone” value (HC110-R; 10 μM piperazine, untransfected and HC110-R-GFP-transfected cells)?
Answer: The value was “no change in the Ca^2+ balance”.
